Inhibition data for 77 molecules are collected here from article PMC8041284, “Tunable Methacrylamides for Covalent Ligand Directed Release Chemistry” (Journal of the American Chemical Society, 2021).

The experiment has as its target BTK (Homo sapiens, UniProt Q06187). In words: biochemical.
[1] abbreviates: read-out: BTK inhibition (%), 0.75 uM BTK, […] probe 3l, 15 min preincubation.

Like-named read-outs stand apart in the source and are kept apart here.

Sequence of BTK (Q06187 402-655 limits assumed): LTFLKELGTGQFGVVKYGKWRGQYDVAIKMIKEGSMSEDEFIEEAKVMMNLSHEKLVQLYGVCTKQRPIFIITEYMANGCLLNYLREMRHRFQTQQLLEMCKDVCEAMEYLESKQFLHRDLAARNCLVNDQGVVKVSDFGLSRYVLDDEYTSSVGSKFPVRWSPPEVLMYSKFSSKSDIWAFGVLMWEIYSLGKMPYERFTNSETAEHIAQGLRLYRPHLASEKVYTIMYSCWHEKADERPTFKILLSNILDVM

As for `CN(C)C(=N)N=C(N)N` [PCM-0085761], the inhibition at 10 µM under setting [1] was 21.8%.
Same read-out and setting: the same measure for `N=C(N=C(N)N)N1CCOCC1` [PCM-0085762]: -3.1%; for `COc1ccc(CC2c3cc(OC)c(OC)cc3CC[N+]2(C)CCC(=O)OCCCCCOC(=O)CC[N+]2(C)CCc3cc(OC)c(OC)cc3C2Cc2ccc(OC)c(OC)c2)cc1OC` (centres unmarked) [PCM-0085763]: -16.3%; for `CCCc1ncc(C[n+]2ccccc2C)c(N)n1` [PCM-0085765]: -8.5%.
On the same count and under the same terms, the same measure for `CS(=O)(=O)OCCCCOS(C)(=O)=O` [PCM-0085767]: -1.4%; for `NNC(=O)c1ccncc1` [PCM-0085769]: 2.3%.
Still for that read-out and setting: then `Cc1c(-c2ccccc2)oc2c(C(=O)OCCN3CCCCC3)cccc2c1=O` [PCM-0085770], with 12.8%; and `CCCCOc1ccc(CC(=O)NO)cc1` [PCM-0085771], with 6.9%.
On to `Cc1ncc([N+](=O)[O-])n1CC(O)CCl` (centres unmarked) [PCM-0085772], for which the inhibition at 10 µM under setting [1] was -3.9%.
The same measure, in the same setting: then `NCc1ccc(S(N)(=O)=O)cc1` [PCM-0085773], with -28.8%; and `CCCSc1ccc2nc(NC(=O)OC)[nH]c2c1` [PCM-0085774], with -10.1%.
As for `OC(c1ccccc1)(c1ccccc1)C1CCNCC1` [PCM-0085781], the inhibition at 10 µM (read-out: BTK inhibition (%)) was -14%.
Regarding `Nc1ccc(S(=O)(=O)Nc2nccs2)cc1` [PCM-0085785], under setting [1], the inhibition at 10 µM stood at 14.8%.
Still for that read-out and setting: then `O=c1[nH]c(=O)n([C@H]2C[C@H](O)[C@@H](CO)O2)cc1I` [PCM-0085786], with -27.2%.
Same read-out and setting: the same measure for `C#C[C@]1(O)CC[C@H]2[C@@H]3CCC4=CC(=O)CC[C@@H]4[C@H]3CC[C@@]21C` [PCM-0085792]: 3.1%.
The same measure, in the same setting: then `CCN(CCCc1ccccc1)CCCc1ccccc1` [PCM-0085793], with -8.6%.
With `NC(N)=NC(N)=NCCc1ccccc1` [PCM-0085798], the inhibition at 10 µM under setting [1] amounted to 4.1%.
Same read-out and setting: the same measure for `CS(=O)(=O)c1ccc([C@@H](O)[C@@H](CO)NC(=O)C(Cl)Cl)cc1` [PCM-0085804]: -8.6%.
For the molecule `O=C(NCCO[N+](=O)[O-])c1cccnc1` [PCM-0085806], the inhibition at 10 µM under setting [1] was -5.4%.
Regarding `Cc1cc(=O)n(-c2ccccc2)n1C` [PCM-0085809], under setting [1], the inhibition at 10 µM worked out at 13.8%.
Regarding `COc1ccccc1OCC(O)COC(N)=O` (centres unmarked) [PCM-0085814], the inhibition at 10 µM under setting [1] is 14.8%.
For `CCCCOc1ccc(C(=O)CCN2CCCCC2)cc1` [PCM-0085815], the inhibition at 10 µM under setting [1] is -10.1%.
The same measure, in the same setting: the same measure for `C[C@H]1[C@H](NC(=O)/C(=N\OC(C)(C)C(=O)O)c2csc(N)n2)C(=O)N1S(=O)(=O)O` [PCM-0085816]: -15.6%.
Same read-out and setting: the same measure for `CCC1=C[C@@H]2CN3CCc4c([nH]c5ccccc45)[C@@](C(=O)OC)(C2)[C@@H]13` [PCM-0085818]: 8.6%; for `Cn1c(=O)c2c(ncn2CC(O)CO)n(C)c1=O` (centres unmarked) [PCM-0085824]: 0.8%.
With `O=C1CC[C@@]2(O)[C@H]3Cc4ccc(O)c5c4[C@@]2(CCN3CC2CC2)[C@H]1O5` [PCM-0085829], the inhibition at 10 µM under setting [1] was -24.1%.
Turning to `CCc1nc(N)nc(N)c1-c1ccc(Cl)cc1` [PCM-0085830], under setting [1], the inhibition at 10 µM is -13.2%.
Still for that read-out and setting: then `C[C@]12C=CC(=O)C=C1CC[C@@H]1[C@@H]2[C@@H](O)C[C@@]2(C)[C@H]1CC[C@]2(O)C(=O)CO` [PCM-0085835], with -7%; and `C[C@H]1C[C@@H]2[C@H]([C@@H](O)C[C@@]3(C)[C@H]2CC[C@]3(O)C(=O)CO)[C@@]2(C)C=CC(=O)C=C12` [PCM-0085838], with 9%.
On the same count and under the same terms, the same measure for `Clc1ccc(C(Cn2ccnc2)OCc2ccsc2Cl)c(Cl)c1` (centres unmarked) [PCM-0085844]: -41.2%; for `c1ccc2c(CC3=NCCN3)cccc2c1` [PCM-0085846]: -13.2%.
Same read-out and setting: then `Clc1ccccc1CN1CCc2sccc2C1` [PCM-0085848], with -2.6%; and `Clc1ccc(C(Cn2ccnc2)OCc2c(Cl)cccc2Cl)c(Cl)c1` (centres unmarked) [PCM-0085849], with 38.9%; and `CC(=O)OCC(=O)[C@@]1(O)[C@H](C)C[C@H]2[C@@H]3CCC4=CC(=O)C=C[C@]4(C)[C@@]3(F)[C@@H](O)C[C@@]21C` [PCM-0085852], with 1.4%.
On to `CC1CCc2cc(F)cc3c(=O)c(C(=O)O)cn1c23` (centres unmarked) [PCM-0085858], for which the inhibition at 10 µM under setting [1] was -10.1%.
Regarding `COC(=O)Nc1nc2ccc(Sc3ccccc3)cc2[nH]1` [PCM-0085863], under setting [1], the inhibition at 10 µM is -7%.
The same measure, in the same setting: the same measure for `OCCOCCN1CCN(C(c2ccccc2)c2ccc(Cl)cc2)CC1` (centres unmarked) [PCM-0085866]: 4.1%; for `Cc1cccc(Nc2ccccc2C(=O)O)c1C` [PCM-0085867]: 17.2%; for `CN(C)[C@@H]1C(=O)C(C(N)=O)=C(O)[C@@]2(O)C(=O)C3=C(O)c4c(O)cccc4[C@@](C)(O)[C@H]3C[C@@H]12` [PCM-0085873]: 6.2%.
The same measure, in the same setting: the same measure for `Cc1ccc(C)c(OCCCC(C)(C)C(=O)O)c1` [PCM-0085876]: -29.6%; for `COc1ccc2c(c1)c(CC(=O)OCC(=O)O)c(C)n2C(=O)c1ccc(Cl)cc1` [PCM-0085879]: -19.3%.
On the same count and under the same terms, the same measure for `CC1Cc2ccccc2N1NC(=O)c1ccc(Cl)c(S(N)(=O)=O)c1` (centres unmarked) [PCM-0085884]: 6.2%; for `NC(=NCCCCCCN=C(N)/N=C(\N)Nc1ccc(Cl)cc1)/N=C(\N)Nc1ccc(Cl)cc1` [PCM-0085888]: 3.1%; for `CCCC(=O)Nc1ccc(OCC(O)CNC(C)C)c(C(C)=O)c1` (centres unmarked) [PCM-0085895]: -12.5%.
For `CCn1cc(C(=O)O)c(=O)c2cc(F)c(N3CCNCC3)cc21` [PCM-0085898], the inhibition at 10 µM under setting [1] is -12.8%.
Take `NCCCC[C@H](N[C@@H](CCc1ccccc1)C(=O)O)C(=O)N1CCC[C@H]1C(=O)O` [PCM-0085899]: the inhibition at 10 µM under setting [1] is 1.7%.
Turning to `Clc1ccc(COC(Cn2ccnc2)c2ccc(Cl)cc2Cl)cc1` (centres unmarked) [PCM-0085902], the inhibition at 10 µM under setting [1] turned out to be 7.8%.
Regarding `CCCCN1CCCCC1C(=O)Nc1c(C)cccc1C` (centres unmarked) [PCM-0085904], under setting [1], the inhibition at 10 µM is -9.3%.
Consider `CCN(CC)Cc1cc(Nc2ccnc3cc(Cl)ccc23)ccc1O` [PCM-0085909], for which the inhibition at 10 µM under setting [1] was 8.3%.
Same read-out and setting: the same measure for `Oc1c(Cl)cc(Cl)c2cccnc12` [PCM-0085913]: -0.8%.
In the case of `CCN(CC)CCOC(=O)C(c1ccccc1)c1ccccc1` [PCM-0085916], the inhibition at 10 µM under setting [1] was -7.8%.
For the molecule `C[N+]1(C)CCC(=C(c2ccccc2)c2ccccc2)CC1` [PCM-0085922], the inhibition at 10 µM under setting [1] came out at 13.2%.
Regarding `CN[C@@H]1[C@H](O[C@H]2[C@H](O[C@H]3[C@H](O)[C@@H](O)[C@H](N=C(N)N)[C@@H](O)[C@@H]3N=C(N)N)O[C@@H](C)[C@]2(O)CO)O[C@@H](CO)[C@H](O)[C@H]1O` [PCM-0085923], the inhibition at 10 µM under setting [1] was 9.4%.
On to `CCOC(=O)[C@H](CCc1ccccc1)N[C@@H](C)C(=O)N1CCC[C@H]1C(=O)O` [PCM-0085929], for which the inhibition at 10 µM under setting [1] turned out to be 5.4%.
Same read-out and setting: then `N[C@@H](Cc1cc(I)c(Oc2cc(I)c(O)c(I)c2)c(I)c1)C(=O)O` [PCM-0085937], with 19.5%.
As for `COC1=C(OC)C(=O)C(CCCCCCCCCCO)=C(C)C1=O` [PCM-0085939], the inhibition at 10 µM under setting [1] is -11%.
For the molecule `CCN1CCN(C(=O)N[C@@H](C(=O)N[C@@H]2C(=O)N3C(C(=O)O)=C(CSc4nnnn4C)CS[C@H]23)c2ccc(O)cc2)C(=O)C1=O` [PCM-0085943], the inhibition at 10 µM under setting [1] was -12.5%.
Same read-out and setting: then `Clc1ccc(CCC(Cn2ccnc2)Sc2c(Cl)cccc2Cl)cc1` (centres unmarked) [PCM-0085946], with 37.4%; and `CCN(CC)C(=O)/C(C#N)=C/c1cc(O)c(O)c([N+](=O)[O-])c1` [PCM-0085960], with 38.1%.
Same read-out and setting: the same measure for `NC(=O)c1cccnc1` [PCM-0085961]: 12.5%; for `Cc1cn([C@H]2C[C@H](N=[N+]=[N-])[C@@H](CO)O2)c(=O)[nH]c1=O` [PCM-0085965]: -3.1%.
The same measure, in the same setting: the same measure for `Cc1noc(NS(=O)(=O)c2ccc(N)cc2)c1C` [PCM-0085967]: 10.9%; for `Nc1ccn([C@@H]2CS[C@H](CO)O2)c(=O)n1` [PCM-0085971]: 14%.
Regarding `O=C(O)CCCC[C@@H]1SC[C@@H]2NC(=O)N[C@@H]21` [PCM-0085973], the inhibition at 10 µM under setting [1] stood at 0%.
Still for that read-out and setting: then `C#Cc1cccc(Nc2ncnc3cc(OCCOC)c(OCCOC)cc23)c1` [PCM-0085975], with 1.7%; and `NC(=O)N/N=C/c1ccc([N+](=O)[O-])o1` [PCM-0085977], with 0.8%.
Still for that read-out and setting: then `C[C@@H]1C[C@H]2[C@@H]3CCC4=CC(=O)C=C[C@]4(C)[C@@]3(Cl)[C@@H](O)C[C@]2(C)[C@@]1(OC(=O)c1ccco1)C(=O)CCl` [PCM-0085978], with 40%; and `CCCc1cc(=O)[nH]c(=S)[nH]1` [PCM-0085981], with 3.1%; and `CCOC(=O)C1=C(C)NC(C)=C(C(=O)OCC)C1c1ccccc1/C=C/C(=O)OC(C)(C)C` [PCM-0085989], with 16.3%.
Still for that read-out and setting: the same measure for `NS(=O)(=O)c1cc(C(=O)O)c(NCc2ccco2)cc1Cl` [PCM-0085991]: -2.3%; for `COc1cc(OC)c(C(=O)CCCN2CCCC2)c(OC)c1` [PCM-0085999]: -12.5%; for `CC(=O)OCC(=O)NCCCOc1cccc(CN2CCCCC2)c1` [PCM-0086003]: -3.4%.
For the molecule `CC(C)[C@H](N)C(=O)OCCOCn1cnc2c(=O)[nH]c(N)nc21` [PCM-0086005], under setting [1], the inhibition at 10 µM is -7.8%.
On the same count and under the same terms, the same measure for `COc1cc(N)c(Cl)cc1C(=O)N[C@H]1CCN(CCCOc2ccc(F)cc2)C[C@H]1OC` [PCM-0086006]: 13.2%.
The same measure, in the same setting: then `C=C1/C(=C\C=C2/CCC[C@]3(C)[C@@H]([C@H](C)CCCC(C)C)CC[C@@H]23)C[C@@H](O)C[C@@H]1O` [PCM-0086012], with -3.1%; and `COc1ccc2c3c1O[C@H]1C[C@@H](O)C=C[C@@]31CCN(C)C2` [PCM-0086015], with -17.1%.
As for `CN1CCCC(n2nc(Cc3ccc(Cl)cc3)c3ccccc3c2=O)CC1` (centres unmarked) [PCM-0086017], under setting [1], the inhibition at 10 µM turned out to be 5.5%.
